Experimental data published in patent US9738669B2, “Pentaaza macrocyclic ring complexes possessing oral bioavailability” (Galera Labs, LLC, priority 2015, dated 2017).

Test: Intraduodenal (id) bioavailability screen in minipigs, plasma level of parent Mn complex by HPLC/MS/MS
Format: in vivo, Gottingen minipig
Conditions: for Mini-Pig BioA: id 10 mg/kg, vs 1 mg/kg iv parent chloro complex, AUC0→24 h
Procedure: Compounds were screened for oral bioavailability by injecting the formulated prodrugs directly into the duodenum (intraduodenal or id administration) of the minipig test subjects, thus bypassing the acidic environment of the stomach and thereby eliminating potentially misleading oral bioavailability results that could arise from alteration of the test article drug in the acid environment of the stomach.
The studies were conducted at Xenometrics LLC (Stillwell, Kans.) and the id bioavailability was determined using various axial ligand derivative complexes of GC4419, GC4444, GC4403 and GC4401.
Male Gottingen minipigs (4-5 mo old, 9-12 kg weight) were purchased from Marshall BioResources and housed at Xenometrics. […] The distal end was exteriorized with a reusable accessible hub (see surgical details below). During a recovery period of at least 2 weeks the minipigs were handled daily to acclimate them to the test procedures, i.e., id dosing and blood collections. For each experiment, each minipig received a test article drug dissolved or suspended in an excipient vehicle. […] All dosing experiments were conducted in fasted animals. Food was withdrawn from the minipigs 16 hours before dosing. The minipigs had ad libitum access to water. Dosed minipigs were allowed access to food 6 hour after dosing. The test article was administered at a dose of 10 mg/kg parent drug in 0.1 mL/kg vehicle (e.g., 1.5 mL in 15 kg minipig) as a bolus injection (˜1 minute) via the id cannula. The actual amount of total test article drug administered varied with the formula weight of the prodrug. An equal volume of excipient vehicle was used to flush the cannula after the test article was administered. Approximately 6 hours later, corn oil was used to flush the cannula. After approximately 24 hours post-dose, the catheter was flushed with sterile saline solution and capped. At the following time-points 0.25, 0.5, 1, 2, 4, 8, 24 and 48 hour post-injection, 2 mL blood samples were collected by cranial vena cava puncture (4 mL Sodium heparin Vacutainer, 20 g 1.5″ needle) after the skin surface was wiped with ethanol. The minipig was placed in a sling in a recumbent position without anesthesia for the collection of blood samples. The minipigs were never used more than once per 7 days for experimentation. The blood samples were kept on ice until processed for plasma. Blood samples were centrifuged at 1200×g for ten minutes at 4° C. and plasma samples were transferred to 96 well plate tubes, capped and stored at −20° C. until shipment on dry ice to the analytical laboratory used for measuring the concentration of drug in the plasma. The concentration of the parent manganese pentaaza macrocylic ring complex (independent of the composition of the axial ligands) was measured in plasma using a validated HPLC/MS/MS method that is linear between 50 ng/mL and 20,000 ng/mL.
The oils used for preparing the dosing solutions were used as supplied from commercial sources. The Capmul MCM (NF) is a mixture of mono/diglycerides of caprylic/capric acids and was supplied by ABITEC Corporation, Janesville, Wis. The Miglyol 812 N is a mixture of caprylic/capric acid triglycerides and was supplied by Cremer Oleo Division, Eatontown, N.J. Labrafil M 2125 CS (NF) is chemically defined to be linoleoyl polyoxyl-6 glycerides NF and was supplied by Gattefosse, SAINT-PRIEST Cedex, France. Peceol is chemically defined to be the monoglyceride, glyceryl monooleate NF, and was supplied by Gattefosse, SAINT-PRIEST Cedex, France. Maisine 35-1 is chemically defined to be the monoglyceride glyceryl monolinoleate (NF) and was supplied by Gattefosse, SAINT-PRIEST Cedex, France. Labrasol (NF) is chemically defined to be caprylocaproyl polyoxyl-8 glycerides NF and was supplied by Gattefosse, SAINT-PRIEST Cedex, France. Labrafil M 1944 CS is chemically defined to be oleoyl polyoxyl-6 glycerides (NF), and is available from Gattefosse, SAINT-PRIEST Cedex, France. […]

[1] = base oil Capmul MCM, 10% by weight
[2] = base oil Maisine 35-1, 10% by weight
[3] = base oil Labrafil M2125 CS, 10% by weight

## Manganese(II)bis-Benzoato[(4aS,13aS,17aS,21aS)-1,2,3,4,4a,5,6,12,13,13a,14,15,16,17,17a,18,19,20,21,21a-Eicosahydro-11,7-nitrilo-7H-dibenzo[b,h][1,4,7,10]tetraazacycloheptadecine-κN5,κN13,κN18,κN21,κN22]- [GC4712]
[1]
  Mini-Pig BioA: 24%
[2]
  Mini-Pig BioA: 18%
Base oil Peceol, 10% by weight
  Mini-Pig BioA: 29%

## Manganese(II)bis-L-Lactato[(4aS,13aS,17aS,21aS)-1,2,3,4,4a,5,6,12,13,13a,14,15,16,17,17a,18,19,20,21,21a-Eicosahydro-11,7-nitrilo-7H-dibenzo[b,h][1,4,7,10]tetraazacycloheptadecine-κN5,κN13,κN18,κN21,κN22]- [GC4714]
[1]
  Mini-Pig BioA: 36%

## Manganese(II)bis-L-phenylalaninato[(4aS,13aS,17aS,21aS)-1,2,3,4,4a,5,6,12,13,13a,14,15,16,17,17a,18,19,20,21,21a-Eicosahydro-11,7-nitrilo-7H-dibenzo[b,h][1,4,7,10]tetraazacyclo-heptadecine-κN5,κN13,κN18,κN21,κN22]- [GC4704]
[1]
  Mini-Pig BioA: 10%

## Manganese(II)bis-L-phenylglycinato[(4aS,13aS,17aS,21aS)-1,2,3,4,4a,5,6,12,13,13a, 14,15,16,17,17a,18,19,20,21,21a-Eicosahydro-11,7-nitrilo-7H-dibenzo[b,h][1,4,7,10]tetraazacyclo-heptadecine-κN5,κN13,κN18,κN21,κN22]- [GC4702]
[1]
  Mini-Pig BioA: 43%
[3]
  Mini-Pig BioA: 25%
Base oil Miglyol 812N, 10% by weight
  Mini-Pig BioA: 42%
Base oil Peceol, 10% by weight
  Mini-Pig BioA: 29%
Minipig id dosing, oil formulations, comparison between axial ligands
  oral bioavailability / absorption, comparison in words: much better absorbed

## Manganese(II)bis-L-valinato[(4aS,13aS,17aS,21aS)-1,2,3,4,4a,5,6,12,13,13a,14,15,16,17,17a,18,19,20,21,21a-Eicosahydro-11,7-nitrilo-7H-dibenzo[b,h][1,4,7,10]tetraazacyclo-heptadecine-κN5,κN13,κN18,κN21,κN22]- [GC4746]
[1]
  Mini-Pig BioA: 13%

## Manganese(II)bis-acetato[(4aS,13aS,17aS,21aS)-1,2,3,4,4a,5,6,12,13,13a,14,15,16,17,17a,18,19,20,21,21a-Eicosahydro-11,7-nitrilo-7H-dibenzo[b,h][1,4,7,10]tetraazacycloheptadecine-κN5,κN13,κN18,κN21,κN22]- [GC4701]
[1]
  Mini-Pig BioA: 15%
[3]
  Mini-Pig BioA: 16%
[2]
  Mini-Pig BioA: 8%
Base oil Peceol, 10% by weight
  Mini-Pig BioA: 11%

## Manganese(II)bis-cyclohexanebutyrato[(4aS,13aS,17aS,21aS)-1,2,3,4,4a,5,6,12,13,13a, 14,15,16,17,17a,18,19,20,21,21a-Eicosahydro-11,7-nitrilo-7H-dibenzo[b,h][1,4,7,10]tetraazacyclo-heptadecine-κN5,κN13,κN18,κN21,κN22]- [GC4707]
[1]
  Mini-Pig BioA: 9%

## Manganese(II)bis-dodecanoato[(4aS,13aS,17aS,21aS)-1,2,3,4,4a,5,6,12,13,13a,14,15,16,17,17a,18,19,20,21,21a-Eicosahydro-11,7-nitrilo-7H-dibenzo[b,h][1,4,7,10]tetraazacycloheptadecine-κN5,κN13,κN18,κN21,κN22]- [GC4708]
[1]
  Mini-Pig BioA: 12%

## Manganese(II)bis-n-Butyrato[(4aS,13aS,17aS,21aS)-1,2,3,4,4a,5,6,12,13,13a,14,15,16,17,17a,18,19,20,21,21a-Eicosahydro-11,7-nitrilo-7H-dibenzo[b,h][1,4,7,10]tetraazacycloheptadecine-κN5,κN13,κN18,κN21,κN22]- [GC4713]
[3]
  Mini-Pig BioA: 21%
Base oil Peceol, 10% by weight
  Mini-Pig BioA: 18%

## Manganese(II)bis-octanoato[(4aS,13aS,17aS,21aS)-1,2,3,4,4a,5,6,12,13,13a,14,15,16,17,17a,18,19,20,21,21a-Eicosahydro-11,7-nitrilo-7H-dibenzo[b,h][1,4,7,10]tetraazacycloheptadecine-κN5,κN13,κN18,κN21,κN22]- [GC4710]
[1]
  Mini-Pig BioA: 13%
[3]
  Mini-Pig BioA: 21%
[2]
  Mini-Pig BioA: 8%

## Manganese(II)bis-phenylacetato[(4aS,13aS,17aS,21aS)-1,2,3,4,4a,5,6,12,13,13a,14,15,16,17,17a,18,19,20,21,21a-Eicosahydro-11,7-nitrilo-7H-dibenzo[b,h][1,4,7,10]tetraazacyclo-heptadecine-κN5,κN13,κN18,κN21,κN22]- [GC4718]
[1]
  Mini-Pig BioA: 32%
[2]
  Mini-Pig BioA: 28%

## Manganese(II)bis-phenylglyoxaloto[(4aS,13aS,17aS,21aS)-1,2,3,4,4a,5,6,12,13,13a,14,15,16,17,17a,18,19,20,21,21a-Eicosahydro-11,7-nitrilo-7H-dibenzo[b,h][1,4,7,10]tetraazacyclohepta-decine-κN5,κN13,κN18,κN21,κN22]- [GC4719]
[1]
  Mini-Pig BioA: 25%
[2]
  Mini-Pig BioA: 31%
Base oil Peceol, 10% by weight
  Mini-Pig BioA: 28%

## Manganese(II)bis-pivaloato[(4aS,13aS,17aS,21aS)-1,2,3,4,4a,5,6,12,13,13a,14,15,16,17,17a,18,19,20,21,21a-Eicosahydro-11,7-nitrilo-7H-dibenzo[b,h][1,4,7,10]tetraazacycloheptadecine-κN5,κN13,κN18,κN21,κN22]- [GC4709]
[1]
  Mini-Pig BioA: 17%
[3]
  Mini-Pig BioA: 22%

## Manganese(II)bis-propionato[6R-Methyl(4aR,13aR,17aR,21aR)-1,2,3,4,4a,5,6,12,13,13a,14,15,16,17,17a,18,19,20,21,21a-Eicosahydro-11,7-nitrilo-7H-dibenzo[b,h][1,4,7,10]tetraazacycloheptadecine-κN5,κN13,κN18,κN21,κN22]- [GC4747]
[3]
  Mini-Pig BioA: 20%

## Manganese(II)bis-propionato[(4aR,13aR,17aR,21aR)-1,2,3,4,4a,5,6,12,13,13a,14,15,16,17,17a,18,19,20,21,21a-Eicosahydro-11,7-nitrilo-7H-dibenzo[b,h][1,4,7,10]tetraazacycloheptadecine-κN5,κN13,κN18,κN21,κN22]- [GC4748]
[3]
  Mini-Pig BioA: 22%

## Manganese(II)bis-propionato[(4aS,13aS,17aS,21aS)-1,2,3,4,4a,5,6,12,13,13a,14,15,16,17,17a,18,19,20,21,21a-Eicosahydro-11,7-nitrilo-7H-dibenzo[b,h][1,4,7,10]tetraaza-cycloheptadecine-κN5,κN13,κN18,κN21,κN22]- [GC4711]
[1]
  Mini-Pig BioA: 27%
Base oil Labrafil M1944 CS, 10% by weight
  Mini-Pig BioA: 23%
[3]
  Mini-Pig BioA: 44%
[2]
  Mini-Pig BioA: 29%
Base oil Peceol, 10% by weight
  Mini-Pig BioA: 29%

## Manganese(II)bis-rac-Mandelato[(4aS,13aS,17aS,21aS)-1,2,3,4,4a,5,6,12,13,13a,14,15,16,17,17a,18,19,20,21,21a-Eicosahydro-11,7-nitrilo-7H-dibenzo[b,h][1,4,7,10]tetraazacycloheptadecine-κN5,κN13,κN18,κN21,κN22]- [GC4706]
[1]
  Mini-Pig BioA: 28%
